Results as given in US20180311247A1, “COMBINATION THERAPIES FOR TREATING CANCERS” (GILEAD SCIENCES, INC., priority 2015, published 2018).
Where two headings read alike, the source gives them in different places.

What was measured:
[1] = system: human activated B cell (ABC) subtype DLBCL cell line, TMD8; experiment: TMD8 cell viability (CellTiter Glo) growth inhibition assay; format: cell-based; conditions: TMD8 cells; for cell growth inhibition over the dose range: four days, Compound D 0-90 nM, Compound A1 0-22 nM; for IC50: Homo sapiens, TMD8, 96 h, 96 hours, read-out: average IC50 (concentration that causes half maximal inhibition of cell growth)
Procedure: Material and Methods: The effect of the combination of a BET inhibitor, (2-cyclopropyl-6-(3,5-dimethylisoxazol-4-yl)-1H-benzo[d]imidazol-4-yl)di(pyridin-2-yl)methanol (Compound D), and BTK inhibitor (Compound A1) on growth inhibition of the human activated B cell (ABC) subtype DLBCL cell line, TMD8, was evaluated in vitro. TMD8 cells were dosed with a matrix of Compound D (0-90 nM) and compound A1 (0-22 nM) and treated for four days, after which cell viability was measured by a CellTiter Glo assay. A representative heatmap of this dose matrix for cell growth inhibition is shown in FIG. 2 (0% to 100% growth inhibition). […] Synergy was defined as the excess over the predicted additive interaction between the compounds using Bliss analysis.
Cells were plated at a density of 4,000 cells per well in 384-well (Grenier 781086) tissue culture black well plates already spotted with compounds by a Labcyte Echo liquid handler. […] The predicted response under Bliss additivity for any combination of drugs at a given concentration pair was determined by Ra+Rb−Ra*Rb, where Ra and Rb are the responses of Compounds D and A1 (i.e., cell growth inhibition). The total Bliss score was determined by summing the differences between the observed values and the predicted additive value at each pair of concentrations assayed. Only values where the difference is greater than the 95% confidence interval of the measurements are included in the sum.

[2] = system: type II collagen arthritis in female Lewis rats; experiment: rat collagen-induced arthritis model (established type II collagen arthritis); format: in vivo; conditions: for summed ankle histopathology (mean ± standard error), maximum value of 25: day 34
Procedure: This study evaluated the potential effects of BTK inhibitor in combination with JAK inhibitor in treating arthritis. Lewis rats were injected intradermally/subcutaneously (ID/SC) with porcine type II collagen to induce arthritis. Arthritic rats were treated with vehicle (20% Cremophor EL/10% EtOH/70% saline), Compound A1 (a BTK inhibitor), Compound B4 (a JAK inhibitor), Compound A1 and Compound B4, or Dex (dexamethasone). Compound A1 was administered orally either twice daily at 3, 10, or 20 mg/kg or once daily at 20 mg/kg; Compound B4 was administered orally daily at 2.5 mg/kg; dex was administered daily at 0.075 mg/kg, initiated on day 17. The study was terminated at day 34. Efficacy evaluation was based on body weights, daily ankle caliper measurements, ankle diameter expressed as area under the curve (AUC), terminal hind paw weights, and histopathologic evaluation of right ankles.
This model may reflect certain clinical and histopathologic parameters, such as inflammation, cartilage destruction, and bone resorption that occur in established type II collagen arthritis in female Lewis rats.
Ankle diameters were measured and compared for potential treatment effects. FIG. 1 depicts the measurements taken on Day 9, 13-34 for ankle diameter (in.) (mean±standard error) for the following groups: control (normal and disease), Compound A1 (20 mg/kg, daily), Compound A1 (3 mg/kg, twice daily), Compound B4 (2.5 mg/kg, twice daily), Compound A1 (20 mg/kg, daily) with Compound B4 (2.5 mg/kg, twice daily), Compound A1 (3 mg/kg, twice daily) with Compound B4 (2.5 mg/kg, twice daily) and Dex (0.075 mg/kg daily). In addition, the AUC total sum (day 17-34) (mean f standard error) was measured.
The following score systems were used to evaluate ankle inflammation, ankle pannus, ankle cartilage damage, ankle bone resorption, and periosteal new bone formation, which may represent treatment effects to ankle histology. The sum of the summed ankle histology scores for day 34, are provided herein.
Ankle inflammation scores as used herein have the following meaning: 0=normal; 0.5=minimal focus inflammation; 1=minimal infiltration of inflammatory cells in synovium/periarticular tissue; 2=mild infiltration; 3-moderate infiltration with moderate edema; 4=marked infiltration with marked edema; 5=severe infiltration with severe edema. Ankle pannus scores as used herein have the following meaning: 0=normal; 0.5=minimal infiltration of pannus in cartilage and subchondral bone, affects only marginal zones and affects only a few joints; 1=minimal infiltration of pannus in cartilage and subchondral bone, primarily affects marginal zones; 2=mild infiltration (<25% of tibia or tarsals at marginal zones); 3=moderate infiltration (26%-50% of tibia or small tarsals affected at marginal zones); 4=marked infiltration (51%-75% of tibia or tarsals affected at marginal zones); 5=severe infiltration (>75% of tibia or tarsals affected at marginal zones, severe distortion of overall architecture).

[3] = Compound A1 3 mg/kg, twice daily, orally
[4] = Compound A1 10 mg/kg, twice daily, orally
[5] = Compound A1 20 mg/kg, daily, orally
[6] = Compound A1 20 mg/kg, twice daily, orally
[7] = Compound B4 2.5 mg/kg, twice daily, orally

With `CC#CC(=O)N1CC[C@@H](n2c(=O)n(-c3ccc(Oc4ccccc4)cc3)c3c(N)ncnc32)C1` [Compound A1, (R)-6-amino-9-(1-(but-2-ynoyl)pyrrolidin-3-yl)-7-(4-phenoxyphenyl)-7H-purin-8(9H)-one] the “cell growth inhibition over the dose range” value [1] was “reduced cell growth”, the “ED-1 immunopositive osteoclast count (mean ± standard error)” value [2, 3] was 7±1.3 and the “ankle diameter AUC total sum (day 17-34) (mean ± standard error)” value [2, 3] was 5.9±0.079. The “percent inhibition of the AUC total sum (day 17-34)” value (from here on “percent inhibition … (day 17-34)”) [2, 3] was 13%, the “percent inhibition of the ED-1 immunopositive osteoclast count” value [2, 3] was 65% and the “percent inhibition of the summed ankle histopathology” value [2, 3] was 10%. The “ED-1 immunopositive osteoclast count (mean ± standard error)” value [2, 4] was 8±1.9, the “ankle diameter AUC total sum (day 17-34) (mean ± standard error)” value [2, 4] was 5.9±0.102 and the “percent inhibition … (day 17-34)” value [2, 4] was 9%. The “percent inhibition of the ED-1 immunopositive osteoclast count” value [2, 4] was 62%, the “percent inhibition of the summed ankle histopathology” value [2, 4] was 16% and the “ED-1 immunopositive osteoclast count (mean ± standard error)” value [2, 5] was 9±1.5. For the same compound, the “ankle diameter AUC total sum (day 17-34) (mean ± standard error)” value [2, 5] was 5.9±0.096, the “percent inhibition … (day 17-34)” value [2, 5] was 13% and the “percent inhibition of the ED-1 immunopositive osteoclast count” value [2, 5] was 56%. The “percent inhibition of the summed ankle histopathology” value [2, 5] was 15%, the “ED-1 immunopositive osteoclast count (mean ± standard error)” value [2, 6] was 4±0.7 and the “ankle diameter AUC total sum (day 17-34) (mean ± standard error)” value [2, 6] was 5.8±0.124. The “percent inhibition … (day 17-34)” value [2, 6] was 15%, the “percent inhibition of the ED-1 immunopositive osteoclast count” value [2, 6] was 83% and the “percent inhibition of the summed ankle histopathology” value [2, 6] was 18%. For the same compound, the “summed ankle histopathology (mean ± standard error), maximum value of 25” value [2, 3] was 23±0.6, the “summed ankle histopathology (mean ± standard error), maximum value of 25” value [2, 4] was 21±1.4 and the “summed ankle histopathology (mean ± standard error), maximum value of 25” value [2, 5] was 21±0.7. The “summed ankle histopathology (mean ± standard error), maximum value of 25” value [2, 6] was 21±0.6.
`C[C@@H]1CCN(C(=O)CC#N)C[C@@H]1N(C)c1ncnc2[nH]ccc12` [Compound B4, 3-((3R,4R)-4-methyl-3-(methyl(7H-pyrrolo[2,3-d]pyrimidin-4-yl)amino)piperidin-1-yl)-3-oxopropanenitrile, reference compound] was tested, and the “ED-1 immunopositive osteoclast count (mean ± standard error)” value [2, 7] was 16±1.7, the “ankle diameter AUC total sum (day 17-34) (mean ± standard error)” value [2, 7] was 5.6±0.083 and the “percent inhibition … (day 17-34)” value [2, 7] was 28%. For the same compound, the “percent inhibition of the ED-1 immunopositive osteoclast count” value [2, 7] was 14%, the “percent inhibition of the summed ankle histopathology” value [2, 7] was 23% and the “summed ankle histopathology (mean ± standard error), maximum value of 25” value [2, 7] was 19±1.4.
`Cc1noc(C)c1-c1cc(C(O)(c2ccccn2)c2ccccn2)c2nc(C3CC3)[nH]c2c1` [Compound D, (2-cyclopropyl-6-(3,5-dimethylisoxazol-4-yl)-1H-benzo[d]imidazol-4-yl)di(pyridin-2-yl)methanol] was tested, and the IC50 ([1]; Compound D alone) was 0.025 µM, the IC50 ([1]; in the presence of 5.5 nM of Compound A1) was 0.011 µM and the IC50 ([1]; in the presence of 11 nM of Compound A1) was 0.008 µM. For the same compound, the “cell growth inhibition over the dose range” value [1] was “reduced cell growth”.
With `C[C@@H]1C[C@H]2[C@@H]3CCC4=CC(=O)C=C[C@]4(C)[C@@]3(F)[C@@H](O)C[C@]2(C)[C@@]1(O)C(=O)CO` [Dex, dexamethasone, reference compound] the “ED-1 immunopositive osteoclast count (mean ± standard error)” value ([2]; Dex 0.075 mg/kg) was 4±1.4, the “percent inhibition … (day 17-34)” value ([2]; Dex 0.075 mg/kg) was 56% and the “percent inhibition of the ED-1 immunopositive osteoclast count” value ([2]; Dex 0.075 mg/kg) was 85%. For the same compound, the “percent inhibition of the summed ankle histopathology” value ([2]; Dex 0.075 mg/kg) was 51%, the “ankle diameter AUC total sum (day 17-34) (mean ± standard error)” value ([2]; Dex 0.075 mg/kg daily) was 5.2±0.069 and the “summed ankle histopathology (mean ± standard error), maximum value of 25” value ([2]; Dex 0.075 mg/kg daily) was 12±1.0.
